In patent US8563067B2, “Extended shelf life and bulk transport of perishable organic liquids with low pressure carbon dioxide” (Cornell Research Foundation, Inc., priority 2004, dated 2013):

Assays:
[1] = test system: aerobic bacteria (SPC) in raw milk; experiment: Standard Plate Count (SPC) of raw milk held under CO2 pressure, laboratory scale (Example 1); format: cell-based; conditions: for SPC increase / SPC reduction from initial SPC: 20° C.; for SPC reduction versus control: 1378 kPa
From the text: The apparatus for pressurizing and holding raw milk samples is shown in schematic form in FIG. 9 and consisted of two 13-ml stainless steel 1.27-cm OD cylindrical vessels 60, 61; one vessel 60 was pressurized while the other served as a control 61. Compressed and filtered CO2 from a high-pressure tank 62 was used (Empire Airgas, Inc, Elmira, N.Y.). The system consisted of pressure regulator 63, a fine metering valve 64 (NUPRO Company, Willoughby, Ohio), an on-off valve 65 (Circle Seal, Anaheim, Calif.) and a check valve 66 (NUPRO Company, Willoughby, Ohio). The fine metering valve controlled gas flow such that the time to reach desired pressure was less than five seconds. The gas entered the vertically positioned treatment vessel 60 from the bottom and was thus bubbled through the milk until the set pressure was reached. A check valve 66 was placed immediately before the inlet to the pressure vessel to prevent the backward flow of the fluid milk into the gas inlet line. The outlet of the vessels consisted of a pressure gauge 67 and a high-pressure release valve 68 (High Pressure Equipment, Erie, Pa.). The release valve 68 was kept tightly closed during treatment. The control vessel 61 was closed off from both ends but not connected to the carbon dioxide line inlet and outlet lines.
Milk samples were mixed and 5 ml of milk added into the treatment and control vessels. The treatment vessel was connected to the apparatus and the control vessel closed off. Both vessels were placed in the water bath. When the desired temperatures were attained in both treatment and control vessels, CO2 was introduced through the bottom of the treatment vessel until the set pressure was reached. The CO2 pressure was maintained throughout the test period. When the desired time was reached, the CO2 inlet was turned off, the pressure release valve on the outlet line opened, and the pressure released in under one minute. After depressurization, the treatment and control vessels were removed from the water bath and their external surfaces were wiped dry, sanitized with 95% ethanol, detached from the apparatus and transferred into sterile containers for dilution and plating.
Short (<1 h) and longer term (1, 4 and 9 day) experiments were conducted. Raw milk (Northeast Dairy Herd Improvement Association, Inc.; Ithaca, N.Y.) in 5 ml aliquots was treated at each of the following combinations of CO2 pressure, temperature, and time (kPa/° C./min): 1378/5/15, 2757/5/5, 3446/5/5. In longer term studies, raw milk from the T&R Center was first stored at 6° C./48 h so that the SPC were at detectable levels at treatment initiation. […]
Raw milk from the T&R Center was monitored for changes in aerobic bacteria, gram-negative bacteria and total Lactobacillus spp. as follows: CO2 pressures of 0 (control), 68, 172, 344, 516 and 689 kPa, at 6.1° C. for 4-days. SPC, gram-negative bacteria and total Lactobacillus spp. were enumerated before (day 0) and after (day 4) treatment. Gram negative bacteria were enumerated on MacConkey Agar (Difco Manual, Becton Dickinson & Co., Sparks, Md.), a selective and differential media which can be used to discriminate between lactose fermenting and non-lactose fermenting gram-negative bacteria. Use of this media allows a one-step method of obtaining estimates of both coliform and non-coliform gram negative bacteria. Coliform bacteria may include species of Escherichia, Klebsiella and Enterobacter, potential pathogens and/or spoilage organisms. Non-coliform gram negative bacteria may include spoilage organisms such as pseudomonads or potential pathogens such as Salmonella spp. or Shigella spp. Numbers of Lactobacillus spp. populations were estimated using acidified (adjusted to pH 5.5 with glacial acetic acid) Lactobacillus MRS agar (Difco Manual, Becton Dickinson & Co., Sparks, Md.) after incubation under anaerobic conditions; suspect colonies were confirmed by gram stain. […]

[2] = test system: SPC (total microbial growth) in whole raw milk; experiment: SPC of bulk raw milk in CO2 pressurized tank container (Example 2); format: cell-based; conditions: bottom of the tank, entire 17 day study
From the text: The apparatus pressurizing and holding raw milk samples consisted of a 5300 U.S. gallon (20,000 liter) food grade, insulated, pressure vessel shipping container of the model HO4 type utilized by Agmark Foods, Inc. Compressed and filtered CO2 from high pressure tank was used, including a Praxair inline 3A sparger. The Agmark shipping container was sanitized on Aug. 4, 2004. The following day, the tank was pre-chilled with a spray of CO2 and filled with 3,291 U.S. gallons of fresh raw milk obtained from the Cornell University Teaching and Research Center Bovine Heard (T&R Center; Dryden, N.Y.) on Aug. 5, 2004. The raw milk from the T&R Center was received less than 12 hours after milking and was introduced from a holding tank into the pressure vessel at a temperature of approximately 1 to 2° C. Prior to filling the pressure vessel, the vessel was sealed and pressurized with carbon dioxide to a pressure of 25 psi (172.5 kPa). Milk was pumped into the tank through the discharge valve at the rear of the tank and CO2 was injected into the flow of the milk with an inline Praxair 3A sparger at a rate sufficient to infuse approximately 2000 parts per million at a gas flow rate of approximately 16 cubic feet per minute. The raw milk was pumped into the vessel at a flow rate of 70 to 80 gallons per minute with flowing CO2 under a 40 psi line pressure and 25 psi tank pressure. […]

## O=C=O [CO2, carbon dioxide]
[1]; 68, 172, 344, 516 and 689 kPa, 6.1° C., 4 days
  microbial growth compared to control milks: significantly reduced microbial growth
[1]; 68 kPa, 6.1° C., 4 days
  SPC increase from initial SPC: 1.28 log10 cfu/ml
[1]; 68 kPa, 24 h
  SPC increase: 1.07 log10 cfu/ml
[1]; 172 kPa, 6.1° C., 4 days
  SPC increase from initial SPC: 1.10 log10 cfu/ml
[1]; 172 kPa, 24 h
  SPC increase: 0.59 log10 cfu/ml
[1]; 344 kPa CO2, 24 h, 10° C.
  decrease in counts (SPC): 0.31 log10 cfu/ml
[1]; 344 kPa, 6.1° C., 4 days
  SPC increase from initial SPC: 0.94 log10 cfu/ml
[1]; 344 kPa, 24 h
  SPC reduction from initial SPC: 0.39 log10
[1]; 516 kPa CO2, 24 h, 10° C.
  decrease in counts (SPC): 0.56 log10 cfu/ml
[1]; 516 kPa CO2 pressure, 6.1° C., 4 days
  SPC of treated samples versus initial untreated samples: not significantly different
[1]; 516 kPa, 6.1° C., 4 days
  SPC increase from initial SPC: 0.82 log10 cfu/ml
[1]; 516 kPa, 24 h
  SPC reduction from initial SPC: 0.62 log10
[1]; 689 kPa CO2, 4° C.
  time for treated milk to reach SPC of 10^5 cfu/ml: 8 days
[1]; 689 kPa CO2, 24 h, 10° C.
  decrease in counts (SPC): 0.71 log10 cfu/ml
[1]; 689 kPa CO2 pressure, 4° C., 4 days, raw milk
  SPC counts, Treated, 4 Days: 7.8 * 10^2b cfu/ml
[1]; 689 kPa CO2 pressure, 4° C., 6 days, raw milk
  SPC counts, Treated, 6 Days: 4.4 * 10^4c cfu/ml
[1]; 689 kPa CO2 pressure, 4° C., 8 days, raw milk
  SPC counts, Treated, 8 Days: 9.7 * 10^4d cfu/ml
[1]; 689 kPa CO2 pressure, 4° C., 9 days, raw milk
  SPC counts, Treated, 9 Days: 2.4 * 10^5e cfu/ml
[1]; 689 kPa, 4° C.
  extension of treatment holding time compared to control: at least four days
[1]; 689 kPa, 4° C., 6 days
  treated milk SPC: 4.64 log10 cfu/ml
[1]; 689 kPa, 4° C., 8 days
  treated milk SPC: 4.99 log10 cfu/ml
[1]; 689 kPa, 4° C., 9 days
  treated milk SPC: 5.37 log10 cfu/ml
[1]; 689 kPa, 4° C., four days (from 3.48)
  treated milk SPC: 2.89 log10 cfu/ml
[1]; 689 kPa, 6.1° C., 4 days
  SPC lower than initial counts: 0.89 log10 cfu/ml
  SPC lower than the controls: 3.48 log10 cfu/ml
[1]; 689 kPa, 24 h, 10° C.
  difference in SPC between control and test milks: 2.68 log10 cfu/ml
[1]; 689 kPa, 24 h
  SPC reduction from initial SPC: 0.82 log10
[1]; 15 min
  SPC reduction versus control: 0.33 log10
[1]; 30 min
  SPC reduction versus control: 0.39 log10
[1]; all time-pressure combinations, even 68 kPa and 20° C.
  SPC of raw milk compared to untreated controls: significantly reduced
[2]
  bacterial levels versus quality limit of 5 log cfu/ml SPC: did not reach the limit
